# PubChem BioAssay AID2060352 (Molecular Pharmacology Branch, DTP, NCI, 2025)
# “And” between values parts separate entries of the source, which are not always exact repeats. Identical values can stand only once.
# Test system: 616215-338-R-J1-PDC spheroid with HUVEC/MSC, viability
# Assay: Anticancer human tumor 616215-338-R-J1-PDC patient-derived colon adenocarcinoma cell line growth inhibition [TAK]
# Conditions: for viability, T/C: stronger effect = lower value
# From the text: Combinatorial screen of targeted agents with TAK-243 and ipatasertib in multi-cell type tumor spheroids
# A high-throughput screen of multi-cell type tumor spheroids was designed to identify active combinations of targeted small molecules and TAK-243 or ipatasertib. Complex spheroids include a stromal component modeled by human endothelial cells (HUVEC) and fibroblasts modeled by human mesenchymal stem cells (MSCs). The concentration ranges selected for each drug and investigational agent were based upon clinically achievable concentrations if the clinical Cmax of the agent was known.
# Compounds. The drugs and investigational agents: TAK-243 (785004), ipatasertib (767898), everolimus (733504), selumetinib (741078), bortezomib (756655), trametinib (758246), ixazomib (758254), vemurafenib (761431), dabrafenib (764134), sapanisertib (764658), alpelisib (765974), and copanlisib (816437), were obtained from the National Cancer Institute (NCI) Developmental Therapeutics Program Chemical Repository. The FDA-approved anticancer drug set is available from the NCI Developmental Therapeutics Program. […] The stock solutions were prepared in dimethyl sulfoxide (DMSO, Sigma-Aldrich, St. Louis, MO, cat. D2650) at 800-fold the tested concentration and stored at -70 degrees C prior to their use. All drugs and investigational agents were tested over a range starting from a high concentration at or near the clinical Cmax and decreasing in half-log increments. If the clinical Cmax for an agent had not been determined, the highest concentration tested was 10 microM.
# NCI60 Cell Culture. NCI60 cell lines were obtained from the NCI Developmental Therapeutics Program Tumor Repository. For each lot of cells, the Repository performed Applied Biosystems AmpFLSTR Identifiler testing with PCR amplification to confirm consistency with the published Identifier STR profile for each cell line. Cells were kept in continuous culture for no more than 20 passages. The optimal seeding densities for each of the cell lines at each time point assessed were determined prior to performing the concentration response studies. Briefly, the NCI60 human tumor lines were grown as monolayers in RPMI 1640 medium supplemented with 10% FBS and 2 mmol/L L-glutamine.
# An additional 2 lines were from the NCI60 cell line panel including melanomas, MALME-3M and SK-MEL-2. Pooled donor human umbilical vein endothelial cells (HUVEC, Lonza, cat. CC-2519) and human mesenchymal stem cells (hMSC, Lonza, cat. PT-2501) were purchased from Lonza (Walkersville, MD).
# PDMR cell lines were grown in complete medium (DC medium): Dulbecco's modified Eagle's medium (DMEM)/F12 supplemented with 5% fetal bovine serum (FBS), 2 mM L-glutamine, 100 U/mL penicillin and 100 µg/ml streptomycin, 0.4 µg/ml hydrocortisone, 10 ng/ml epidermal growth factor (EGF) recombinant human protein, 24 µg/mL adenine, and 0.1 mg/mL primocin. During culture from frozen stock vials, PDMR cells were cultured in the same medium containing 10 µM Y-27632 (see Table 3). The PDCs were cultured in complete DMEM/F12 media without 10 microM Y-27632 dihydrochloride for at least two passages prior to the screen. The pooled donor HUVEC and hMSC were cultured in endothelial cell growth medium 2 (PromoCell, Heidelberg, Germany, cat. C-22011) and mesenchymal stem cell growth medium 2 (PromoCell, cat. C-28009), respectively. For all experiments, HUVEC and hMSC were used at passages </=5.
# For the pre-screen, cell seeding densities were determined from a titration spanning the range from 5,000 to 313 cells per well. The mct-spheroids including 60% malignant cells, 25% HUVEC and 15% MSC dispensed as a mixture into U-bottom Ultra-Low Attachment 384-well plates (Corning, NY)
# High-throughput Drug Combination Screening.
# Prior to their inoculation into 384-well plates, malignant cells, HUVEC, and hMSC were removed from T flasks using TrypLE express (Thermo Fisher Scientific, cat. 12605036) and harvested by centrifugation for 5 min at 233 x g. […]
# 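Further: spheroids exposed to drugs for 7 days before readout.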
smiles,measurement,setting,value
CC(C)CC(NC(=O)C(Cc1ccccc1)NC(=O)c1cnccn1)B(O)O (centres undefined) + CC(C)NCC(C(=O)N1CCN(c2ncnc3c2C(C)CC3O)CC1)c1ccc(Cl)cc1,IC50,"curve of first compound, second compound 0.3 µM",> 10 nM
same,IC50,"curve of first compound, second compound 0.949 µM",> 10 nM
same,IC50,"curve of first compound, second compound 3 µM",5.34 nM
same,IC50,"curve of first compound, second compound 9.49 µM",< 0.0316 nM
same,IC50,"curve of first compound, second compound 30 µM",< 0.0316 nM
same,"viability, T/C","second compound 0.3 µM, first compound 31.6 pM",90.8%
same,"viability, T/C","second compound 0.3 µM, first compound 0.0001 µM",99.2%
same,"viability, T/C","second compound 0.3 µM, first compound 0.000316 µM",90.8%
same,"viability, T/C","second compound 0.3 µM, first compound 0.001 µM",95.1%
same,"viability, T/C","second compound 0.3 µM, first compound 0.00316 µM",96.6%
same,"viability, T/C","second compound 0.3 µM, first compound 0.01 µM",112%
same,"viability, T/C","second compound 0.949 µM, first compound 31.6 pM",114%
same,"viability, T/C","second compound 0.949 µM, first compound 0.0001 µM",109%
same,"viability, T/C","second compound 0.949 µM, first compound 0.000316 µM",121%
same,"viability, T/C","second compound 0.949 µM, first compound 0.001 µM",112%
same,"viability, T/C","second compound 0.949 µM, first compound 0.00316 µM",111%
same,"viability, T/C","second compound 0.949 µM, first compound 0.01 µM",80.3%
same,"viability, T/C","second compound 3 µM, first compound 31.6 pM",81.1%
same,"viability, T/C","second compound 3 µM, first compound 0.0001 µM",88.7%
same,"viability, T/C","second compound 3 µM, first compound 0.000316 µM",88.7%
same,"viability, T/C","second compound 3 µM, first compound 0.001 µM",80.9%
same,"viability, T/C","second compound 3 µM, first compound 0.00316 µM",84.8%
same,"viability, T/C","second compound 3 µM, first compound 0.01 µM",8.39%
same,"viability, T/C","second compound 9.49 µM, first compound 31.6 pM",33.9%
same,"viability, T/C","second compound 9.49 µM, first compound 0.0001 µM",35.2%
same,"viability, T/C","second compound 9.49 µM, first compound 0.000316 µM",26.4%
same,"viability, T/C","second compound 9.49 µM, first compound 0.001 µM",29.8%
same,"viability, T/C","second compound 9.49 µM, first compound 0.00316 µM",32.2%
same,"viability, T/C","second compound 9.49 µM, first compound 0.01 µM",0.75%
same,"viability, T/C","second compound 30 µM, first compound 31.6 pM",15.3%
same,"viability, T/C","second compound 30 µM, first compound 0.0001 µM",15.2%
same,"viability, T/C","second compound 30 µM, first compound 0.000316 µM",14.1%
same,"viability, T/C","second compound 30 µM, first compound 0.001 µM",13.2%
same,"viability, T/C","second compound 30 µM, first compound 0.00316 µM",15.1%
same,"viability, T/C","second compound 30 µM, first compound 0.01 µM",0.24%
CC(C)(C)c1nc(-c2cccc(NS(=O)(=O)c3c(F)cccc3F)c2F)c(-c2ccnc(N)n2)s1,"viability, T/C",compound 0.0316 µM,104% and 106%
same,"viability, T/C",compound 0.1 µM,123% and 114%
same,"viability, T/C",compound 0.316 µM,132% and 107%
same,"viability, T/C",compound 1 µM,119% and 95.5%
same,"viability, T/C",compound 3.16 µM,73.2% and 54.6%
same,"viability, T/C",compound 10 µM,18.3% and 28.5%
same,IC50,curve of compound,5150 nM and 3870 nM
Cc1nc(NC(=O)N2CCCC2C(N)=O)sc1-c1ccnc(C(C)(C)C(F)(F)F)c1 (centres undefined),"viability, T/C",compound 0.0316 µM,118% and 104%
same,"viability, T/C",compound 0.1 µM,107% and 117%
same,"viability, T/C",compound 0.316 µM,120% and 111%
same,"viability, T/C",compound 1 µM,105% and 108%
same,"viability, T/C",compound 3.16 µM,106% and 111%
same,"viability, T/C",compound 10 µM,106% and 91.4%
same,IC50,curve of compound,> 10000 nM
